Consider three molecules from patent publication US7022712B2, “Solubilization of weak bases” (Arizona Board of Regents on Behalf of the University of …, priority 2002, dated 2006).

In brackets after ≈: the same amount, converted by molar mass. Where two headings read alike, the source gives them in different places.

The conditions of data set [1]: listed for preferred weak bases, no method given; cited from earlier work.
The nature of data set [2]: physchem. It counts as physicochemical. The conditions noted are these: thermodynamic from solid, Solubility of carbendazim. Here is the method:
An excess amount of carbendazim was added to vials containing 2 ml of an aqueous solution of pH 2.00±0.15 and 7.00±0.15 at different concentrations (0, 1, 2.5, 5, and 10%) of cosolvents (EtOH, PG, PEG 400, and Glycerol), surfactants (Tween 20, Tween 80, sodium lauryl sulfate (SLS), and myristoyl camitine (MC)) and cyclodextrins (HPβCD and SBEβCD). In addition the cosolvents and cyclodextrins were studied at 20%. The sample vials were rotated at 20 rpm using an end-over-end mechanical rotator (Glas-Col Laboratory rotator, Terre Haute, Ind.) at ambient temperature for 10 days. […] For solutions having pH greater than 9, the solubility was measured after 3 days rotation instead of 10 days because of the unstable nature of carbendazim in alkaline condition. The samples were filtered through a 0.45-μm filter and the pH at equilibrium was measured before performing HPLC analysis.
The HPLC assay used an Econosphere C8 column (150*4.6 mm, Alltech, Los Altos, Calif.) with a mobile phase composed of pure methanol. The flow rate was controlled at 1.0 ml/min (125 solvent Module, Beckman, Fullerton, Calif.) and the effluent was detected at 280 nm (168 detector, Beckman, Fullerton, Calif.). […]

Data set [3] in a line: physchem. It counts as physicochemical. The conditions noted are these: for solubility at 10 days: thermodynamic from solid. The text has this: The buffer systems used for the pH-solubilization profile were 0.01 M sodium citrate/HCl with pH range 1.2–4.0, 0.01 M citrate-phosphate-borate/HCl with pH range 4.0–8.0, and 0.01M glycine/NaOH with pH range 8.0–12.0. In all the above mentioned buffers the ionic strength was maintained at 0.1M using sodium chloride. The effect of buffer species on the solubility of carbendazim at very low and high pH was not observed because the Ksp of each salt was not reached. Solubility at different pH was determined in the same manner as described below.
An excess amount of carbendazim was added to vials containing 2 ml of an aqueous solution of pH 2.00±0.15 and 7.00±0.15 at different concentrations (0, 1, 2.5, 5, and 10%) of cosolvents (EtOH, PG, PEG 400, and Glycerol), surfactants (Tween 20, Tween 80, sodium lauryl sulfate (SLS), and myristoyl camitine (MC)) and cyclodextrins (HPβCD and SBEβCD). In addition the cosolvents and cyclodextrins were studied at 20%. The sample vials were rotated at 20 rpm using an end-over-end mechanical rotator (Glas-Col Laboratory rotator, Terre Haute, Ind.) at ambient temperature for 10 days. Ten days was selected to ensure equilibrium because the strong crystal structure and high melting point (305° C.) (Budavari, S., 1996. The Merck Index, Twelfth ed. Merck & Co, New Jersey) of carbendazim contributes to a very slow dissolution rate. For solutions having pH greater than 9, the solubility was measured after 3 days rotation instead of 10 days because of the unstable nature of carbendazim in alkaline condition. The samples were filtered through a 0.45-μm filter and the pH at equilibrium was measured before performing HPLC analysis.
The HPLC assay used an Econosphere C8 column (150*4.6 mm, Alltech, Los Altos, Calif.) with a mobile phase composed of pure methanol. The flow rate was controlled at 1.0 ml/min (125 solvent Module, Beckman, Fullerton, Calif.) and the effluent was detected at 280 nm (168 detector, Beckman, Fullerton, Calif.). All experimental data are the average of duplicate values with an average error less than 3%.
The formation of a resonance-stabilized cation and anion is believed responsible for the high solubilities at low and high pH that are shown in FIG. 2. […] FIGS. 7–9 show the pH profile of three other drugs, obtained using analogous methods.

Another data set in a line: in vivo. The conditions noted are these: mouse. The text has this:
The bioavailability of carbendazim was studied in the mouse. An intravenous dose, a formulation of carbendazim in corn oil, and a formulation of carbendazim in phosphoric acid corresponding to the phosphoric acid concentration in Emetrol were each given to a mouse. The blood level on the graph is indicative of the amount of drug absorbed divided by the blood volume of the mouse.

As for `Cc1cc(NC(=O)NC(=O)c2ccccc2N(C)C)ccc1Oc1ncc(N)cn1`, the pKa in data set [1] is listed as approximately 5.
`COC(=O)Nc1nc2ccccc2[nH]1` [carbendazim, methyl 2-benzimidazolecarbamate]: the solubility at 10 days was determined as 1640 µg/mL (≈ 8.58 mM) in the data set “physchem [2]” (pH 2, aqueous buffer); 6 µg/mL (≈ 0.0314 mM) in “physchem [2]” (pH 7, aqueous buffer); 16000 µg/mL (≈ 83.7 mM) in “physchem [3]” (pH 1, aqueous buffer); 1600 µg/mL (≈ 8.37 mM) in the data set “physchem [3]” (pH 2, aqueous buffer). In “physchem [3]” (10 days), this molecule showed an intrinsic solubility of 6.11 µg/mL. The results for the pKa in “physchem [3]” (acidic pKa) and in the data set “physchem [3]” (basic pKa) were 10.6 and 4.5, respectively. Also, in the data set “in vivo” (iv, 6.4 ug), the peak level (Cmax) was 15000 ng/mL. For the same molecule, the bioavailability in “in vivo” (iv, 6.4 ug) was determined as 100%.
Turning to Corn oil, in “in vivo” (po, 132 mg), the “% Bioavailability” value is 4.8–6.4% and the Cmax fell in the range of 15000 to 20000 ng/mL.
